From patent US5679674A (priority 1992, dated 1997)
Structures can show the parent of a compound that is named as a salt. Where two headings read alike, the source gives them in different places.

Tests used:
[1] = system: p-Phenylquinone-induced agony (writhing response) in mice; assay: p-Phenylquinone-induced agony test in mice (oral administration); type: in vivo, Male ddy mice; conditions: Mus musculus, 0.25 h, read-out: Analgesic effect (Oral Administration) (ED50, mg/kg) Phenylquinone-induced agony test
Procedure: p-Phenylquinone-induced agony test in mice (oral administration)
According to the method of Siegmund et al. [Proc. Soc. Exptl. Biol. Med., 95, 729 (1957)], the title test was conducted. Male ddy mice (Japan SLC) each weighing about 20 g were fasted for about 16 hours from the day before the test and divided into groups each including from 5 to 10 mice.
A compound to be tested was dissolved in 0.5% tragacanth and administered orally. After 15 minutes, each 0.1 ml/mouse of 0.03% p-phenylquinone solution was injected intraperitoneally. During 5 to 10 minutes after injection, the number of agony reactions (writhing response) observed in each mouse was counted. Those mice showing 1/2 or less of the mean value of the numbers of agony reactions observed in the control mice injected with only physiological saline were regarded as analgesic-effective animals.

[2] = system: p-Phenylquinone-induced agony (writhing response) in mice; assay: animal or person; type: in vivo, Male ddy mice; conditions: Mus musculus, sc, 0.25 h, read-out: Analgesic effect (ED50, μg/kg sc) Phenylquinone-induced agony test
[3] = molecular target: T1, k-receptor (Cavia porcellus, UniProt P41144); assay: biochemical; type: binding, guinea pig
T1 construct: The whole brain of male Hertley guinea pigs (Japan SLC); from tissue; host or cells: crude membranes of guinea pig whole brain without cerebellum (Hartley, printed 'Hertley', males)
T1 sequence (P41144 whole entry): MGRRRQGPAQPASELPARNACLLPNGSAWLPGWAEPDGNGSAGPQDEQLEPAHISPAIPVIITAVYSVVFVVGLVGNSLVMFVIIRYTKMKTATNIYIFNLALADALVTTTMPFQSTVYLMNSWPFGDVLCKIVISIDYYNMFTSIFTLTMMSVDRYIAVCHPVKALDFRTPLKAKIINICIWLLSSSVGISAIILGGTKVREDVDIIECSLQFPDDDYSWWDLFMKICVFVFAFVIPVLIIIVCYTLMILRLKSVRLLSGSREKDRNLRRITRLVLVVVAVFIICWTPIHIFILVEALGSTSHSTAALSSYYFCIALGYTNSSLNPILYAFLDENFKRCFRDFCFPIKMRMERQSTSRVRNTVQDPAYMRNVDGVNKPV

[4] = molecular target: T2, μ-receptor (Cavia porcellus, UniProt A0ACM8Q262); parameters: species or system guinea pig; conditions: read-out: Binding to the receptors (IC50, nM) μ
T2 construct: tritiated DAGO (DAMGO) displacement
T2 sequence (A0ACM8Q262 1-400): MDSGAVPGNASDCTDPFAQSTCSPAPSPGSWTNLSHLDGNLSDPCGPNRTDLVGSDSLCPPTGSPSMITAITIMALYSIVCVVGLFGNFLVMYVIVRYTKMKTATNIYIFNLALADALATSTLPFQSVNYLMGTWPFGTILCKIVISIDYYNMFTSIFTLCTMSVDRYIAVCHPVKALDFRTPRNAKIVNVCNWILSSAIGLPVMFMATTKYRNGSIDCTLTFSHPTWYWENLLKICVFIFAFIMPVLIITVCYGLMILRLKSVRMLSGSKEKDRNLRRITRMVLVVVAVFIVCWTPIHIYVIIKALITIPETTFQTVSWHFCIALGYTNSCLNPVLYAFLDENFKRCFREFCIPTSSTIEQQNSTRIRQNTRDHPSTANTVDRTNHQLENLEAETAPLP

[5] = read-out: Binding to the receptors (IC50, nM) k

O=C([C@H]1CCc2cc(Cl)c(Cl)cc21)N1CCSC[C@H]1CN1CCCC1 (relative stereo) [Racemate Corresponding to Compound of Example 1]
ED50 [1]: 0.18 mg/kg

O=C1C[C@H](C(=O)N2CCSC[C@H]2CN2CCCC2)c2cc(Cl)c(Cl)cc21 (relative stereo) [Racemate Corresponding to Compound of Example 2]
ED50 [1]: 0.79 mg/kg

O=C1CC[C@H](C(=O)N2CCSC[C@H]2CN2CCCCC2)c2cc(Cl)c(Cl)cc21 (relative stereo) [Racemate Corresponding to Compound of Example 3]
ED50 [1]: 1.22 mg/kg

O=C([C@@H]1CCc2cc(Cl)c(Cl)cc21)N1CCSC[C@H]1CN1CCCC1 [Corresponding (3R, 1R)]
ED50 [2]: 23900 µg/kg | IC50 [3, 5]: 3500 nM | IC50 [4]: 32000 nM

O=C([C@@H]1CCc2cc(Cl)c(Cl)cc21)N1CCSC[C@@H]1CN1CCCC1 [Corresponding (3S, 1R)]
ED50 [2]: 10900 µg/kg | IC50 [3]: 21000 nM | IC50 [4]: 12000 nM

O=C([C@H]1CCc2cc(Cl)c(Cl)cc21)N1CCSC[C@@H]1CN1CCCC1 [Corresponding (3S, 1S)]
ED50 [2]: 7800 µg/kg | IC50 [3]: 920 nM | IC50 [4]: 15000 nM

O=C([C@H]1CCc2cc(Cl)c(Cl)cc21)N1CCSC[C@H]1CN1CCCC1 [Example 1, (3R)-3-(1-Pyrrolidinylmethyl)-4-[(1S)-(5,6-dichloro-1-indanecarbonyl]thiomorpholine hydrochloride]
ED50 [2]: 1.3 µg/kg | IC50 [3, 5]: 0.44 nM | IC50 [4]: 300 nM | ED50 [1]: 0.011 mg/kg

O=C1C[C@H](C(=O)N2CCSC[C@H]2CN2CCCC2)c2cc(Cl)c(Cl)cc21 [Example 2, (3R)-3-(1-Pyrrolidinylmethyl)-4-[(1S)-3-oxo-5,6-dichloro-1-indanecarbonyl]thiomorpholine hydrochloride]
ED50 [2]: 0.6 µg/kg | IC50 [3]: 0.46 nM | IC50 [4]: 330 nM | ED50 [1]: 0.031 mg/kg

O=C1CC[C@H](C(=O)N2CCSC[C@H]2CN2CCCCC2)c2cc(Cl)c(Cl)cc21 [Example 3, (3R)-3-(1-Piperidinylmethyl)-4-[(1S)-6,7-dichloro-4(3H)-oxo-1,2-dihydro-1-naphthoyl]thiomorpholine hydrochloride]
ED50 [2]: 13 µg/kg | IC50 [3, 5]: 1.7 nM | IC50 [4]: 1800 nM | ED50 [1]: 0.29 mg/kg
